Experimental data as given in patent US8703979B2, “Preparation of anticancer-active tricyclic compounds via alkyne coupling reaction” (Taheebo Japan Co., Ltd., priority 2010, dated 2014).

melting point: > 193 °C (dec.)
SMILES: CC(O)c1cc2c(s1)C(=O)c1cccc(O)c1C2=O (stereo not shown) [Example 20, 2-(1-hydroxyethyl)-5-hydroxynaphtho[2,3-b]thiophene-4,9-dione]
